In patent US20250122225A1, “MASP-2 INHIBITORS AND METHODS OF USE” (Omeros Corporation, priority 2023, published 2025):
Where a name gives a salt, the structure may show the parent alone.

What was measured:
Assay type in all cases: biochemical
MASP-2 (CCP1-CCP2-SP) = target: T1, MASP-2 (CCP1-CCP2-SP) (Homo sapiens, UniProt O00187); test: Enzymatic assay for MASP-2 inhibitory activity (fluorogenic substrate)
T1 construct: 15 μL of Enzyme MASP-2 (CCP1-CCP2-SP) in Assay Buffer
Procedure, shortened: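 MASP-2 (CCP1-CCP2-SP) cleaved a fluorogenic substrate based on the C2 cleavage site in 20 mM HEPES pH 7.4, 140 mM NaCl, 0.1% Tween 20 at room temperature. After 20 min the reaction was stopped with 0.1 M acetic acid and fluorescence read. % activity was normalized to DMSO-only and no-enzyme controls; IC50 taken as Ki.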

human α-thrombin = target: T2, human α-thrombin (Homo sapiens, UniProt P00734); test: Enzymatic assay for thrombin (fluorogenic peptide substrate Boc-VPR-AMC)
T2 construct: enzyme (human α-thrombin (BioPharm® Lab.)) in assay buffer; purchased BioPharm® Lab
Procedure, shortened: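 Human α-thrombin was run with the fluorogenic substrate Boc-VPR-AMC in 20 mM Hepes pH 7.4, 140 mM NaCl, 0.1% Tween 20 at room temperature for 20 min, then stopped with 0.1 M acetic acid. % activity was normalized to DMSO and no-enzyme controls. Under linear conditions IC50 equalled Ki, except for tight-binding inhibitors.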

[1] = test system: Lectin Pathway Activation in human serum; test: Lectin Pathway Activation (LPA) assay in human serum, mannan-coated ELISA plate, C4c detection; conditions: 1% human serum, read-out: LPA Functional Activity (IC50)
Procedure: Lectin Pathway Activation (LPA) Assay in Human Serum Treated with Compounds
A microtiter ELISA plate was coated with mannan (1 mg/ml) from Saccharomyces cerevisiae (Sigma-Aldrich®, M7504) overnight at 4° C. in coating buffer [33.3 mM Na2CO3, 166.67 mM NaHCO3]. The plate was blocked with 5% bovine serum albumin (BSA) (Sigma-Aldrich®, A3294) in 1×PBST [Phosphate Buffered Saline Solution (1.06 mM KH2PO4, 155.2 mM NaCl, 2.97 mM Na2HPO4^−·7H2O, pH 7.4), 0.05% Tween-20] shaking for 2 hours at room temperature. 1% human serum was incubated with serial dilutions of small compounds in 1× LPA+ Buffer [20 mM Hepes, pH 7.4, 140 mM NaCl, 2 mM MgCl2 (6H2O)] and incubated for 5 minutes at room temperature. 40 μL of this mixture was then added to the plate, and the plate was incubated at room temperature for 55 mins. Next, the reaction was stopped by adding 20 μL of EDTA Stop Solution [20 mM Hepes, pH7.4, 140 mM NaCl, 150 mM EDTA] to the plate. The plate was then washed 10× in wash buffer 1×PBST; 40 μL of Rabbit Anti Human C4c Antibody [Dako®, Q0369] diluted 1:20000 in wash buffer was added; and the plate was incubated shaking at room temperature for 30 minutes. The plate was washed [5× times]; 40 μL of Goat Anti-rabbit Antibody-HRP Conjugate [Southern Biotech®, 4050-05] diluted 1:10000 in wash buffer was added; and the plate was incubated shaking at room temperature for 30 minutes. After that, the plate was washed five times; 40 µL/well of Amplex® UltraRed Substrate Solution [1× LPA Buffer, 10 mM Amplex® UltraRed Stock Solution [Thermo Fisher Sci.®, A36006], 3% stabilized hydrogen peroxide [Sigma Aldrich®, 216763] was added; the plate was incubated at room temperature for 16 minutes; the reaction was stopped by adding 8 µL/well of Amplex® UltraRed Stop Solution [Thermo Fisher Sci.®, A33855] in 100% EtOH. Finally, the plate was read for fluorescence at Ex: 550 nm, Em: 580 nm on the i3x Microplate Reader.

T1 sequence (O00187 445-686 limits assumed): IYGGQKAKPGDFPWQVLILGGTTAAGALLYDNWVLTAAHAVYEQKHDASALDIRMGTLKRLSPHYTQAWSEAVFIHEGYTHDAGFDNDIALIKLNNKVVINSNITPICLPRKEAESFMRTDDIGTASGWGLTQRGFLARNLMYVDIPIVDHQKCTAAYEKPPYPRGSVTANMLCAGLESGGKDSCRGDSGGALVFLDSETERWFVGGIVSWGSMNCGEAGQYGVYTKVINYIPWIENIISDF
T1 sequence (O00187 287-444 partner limits assumed): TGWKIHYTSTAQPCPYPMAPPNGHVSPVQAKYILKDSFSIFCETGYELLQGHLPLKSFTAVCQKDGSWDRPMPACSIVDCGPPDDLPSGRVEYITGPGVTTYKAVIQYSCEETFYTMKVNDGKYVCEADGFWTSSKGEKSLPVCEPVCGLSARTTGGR

Ki (MASP-2 (CCP1-CCP2-SP))	Ki (human α-thrombin)	IC50 [1]	SMILES
< 500 nM	< 500 nM	< 50 nM	[2H]C([2H])([2H])c1nc(N)ccc1CNC(=O)[C@@H]1CCc2cnc(NCc3cc(C)cc(OC)c3)c(=O)n21 [Compound 226, (S)—N-((6-amino-2-(methyl-d3)pyridin-3-yl)methyl)-3-((3-methoxy-5-methylbenzyl)amino)-4-oxo-4,6,7,8-tetrahydropyrrolo[1,2-a]pyrazine-6-carboxamide]
< 500 nM	2500 to 10000 nM	< 50 nM	CC1(C)C[C@@H](C(=O)NCc2cc3cnccc3[nH]2)n2c1cnc(NCc1ccccc1)c2=O [Compound 228, trifluoroacetate]
< 500 nM	500 to 2500 nM	50 to 500 nM	C[C@@H]1C[C@@H](C(=O)NCc2cc3cnccc3[nH]2)n2c1c(Cl)nc(NCc1ccccc1)c2=O [Compound 230, (6S,8R)-N-((1H-pyrrolo[3,2-c]pyridin-2-yl)methyl)-3-(benzylamino)-1-chloro-8-methyl-4-oxo-4,6,7,8-tetrahydropyrrolo[1,2-a]pyrazine-6-carboxamide trifluoroacetate]
< 500 nM	> 25000 nM	50 to 500 nM	O=C(NCc1cc2cnccc2[nH]1)[C@@H]1CCc2c(Cl)nc(NCc3cnccn3)c(=O)n21 [Compound 239]
< 500 nM	< 500 nM	50 to 500 nM	Cc1nc(N)ccc1CNC(=O)[C@@H]1CCc2c(Cl)nc(NCCc3cccnc3)c(=O)n21 [Compound 240]
< 500 nM	< 500 nM	< 50 nM	O=C(NCc1cc2c(s1)CNC2)[C@@H]1CCc2cnc(N[C@H]3CCc4ccc(-c5ccccc5)cc43)c(=O)n21 [Compound 257]
< 500 nM	< 500 nM	< 50 nM	O=C(NCc1cc2c(s1)CNC2)[C@@H]1CCc2cnc(N[C@@H](c3ccccc3)C3CC3)c(=O)n21 [Compound 259, (S)-3-(((R)-cyclopropyl(phenyl)methyl)amino)-N-((5,6-dihydro-4H-thieno[2,3-c]pyrrol-2-yl)methyl)-4-oxo-4,6,7,8-tetrahydropyrrolo[1,2-a]pyrazine-6-carboxamide trifluoroacetate]
< 500 nM	< 500 nM	< 50 nM	C[C@@H](CNc1ncc2n(c1=O)[C@H](C(=O)NCc1cc3c(s1)CNC3)CC2)c1ccccc1 [Compound 276, (S)-N-((5,6-dihydro-4H-thieno[2,3-c]pyrrol-2-yl)methyl)-4-oxo-3-(((R)-2-phenylpropyl)amino)-4,6,7,8-tetrahydropyrrolo[1,2-a]pyrazine-6-carboxamide trifluoroacetate]
< 500 nM	500 to 2500 nM	50 to 500 nM	CC[C@@H](Nc1ncc2n(c1=O)[C@H](C(=O)N[C@H](C)c1cc3c(s1)CNC3)CC2)c1ccccc1 [Compound 277]
